Source: patent US20220282271A1, “HERBICIDE RESISTANT PLANTS AND METHODS OF MAKING AND USING” (OFFICE OF INNOVATION ADVANCEMENT AND COMMERCIALIZATION, priority 2019, published 2022)

How the values were obtained:
Type in all cases: in vivo
Details in all cases: 1.0 lb ai/a, applied approximately 3 weeks after emergence, relative to non-treated
Albizia julibrissin = assay: Weed control screen: silktree
Description: (§1) Herbicides were applied at a spray volume of 280 L/ha with no adjuvant added to any herbicide mixture. Weed control was rated on a 0 to 100 percent phytoxicity scale with 0 being no plant injury/phytotoxicity and 100 being complete plant dessication. Twenty-one weeds were evaluated for response to herbicides (Table 3). The weeds selected were a mixture of weeds common in agronomic and horticultural crops. Herbicide was applied to all species approximately 3 weeks after emergence. Plant phytotoxicity rated as percent control relative to the non-treated.

Senna obtusifolia = assay: Weed control screen: sicklepod
Description: as §1

Crotalaria spectabilis = assay: Weed control screen: showy crotalaria
Description: as §1

Sesbania exaltata = assay: Weed control screen: hemp sesbania
Description: as §1

Physalis angulata = assay: Weed control screen: cutleaf groundcherry
Description: as §1

Murdannia nudiflora = assay: Weed control screen: doveweed
Description: as §1

Ipomoea lacunosa = assay: Weed control screen: pitted morningglory
Description: as §1

Sida spinosa = assay: Weed control screen: prickly sida
Description: as §1

Cyperus iria = assay: Weed control screen: rice flatsedge
Description: as §1

Ipomoea coccinea = assay: Weed control screen: red morningglory
Description: as §1

Ipomoea quamoclit = assay: Weed control screen: cypressvine morningglory
Description: as §1

Ipomoea hederacea = assay: Weed control screen: entireleaf morningglory
Description: as §1

Jaquemontia tamnifolia = assay: Weed control screen: smallflower morningglory
Description: as §1

Conyza candensis = assay: Weed control screen: glyphosate-resistant horseweed
Description: as §1

Solanum carolinense = assay: Weed control screen: Carolina horsenettle
Description: as §1

Kyllinga squamulata = assay: Weed control screen: cock's comb kyllinga
Description: as §1

Sorghum halapense = assay: Weed control screen: johnsongrass
Description: as §1

Eleusine indica = assay: Weed control screen: goosegrass
Description: as §1

Abutilon theophrasti = assay: Weed control screen: velvetleaf
Description: as §1

Amaranthus hybridus = assay: Weed control screen: smooth pigweed
Description: as §1

Amaranthus palmeri = assay: Weed control screen: glyphosate resistant palmer amaranth
Description: as §1

Row | SMILES | Percent control (0 to 100) (Albizia julibrissin) [%] | Percent control (0 to 100) (Senna obtusifolia) [%] | Percent control (0 to 100) (Crotalaria spectabilis) [%] | Percent control (0 to 100) (Sesbania exaltata) [%] | Percent control (0 to 100) (Physalis angulata) [%] | Percent control (0 to 100) (Murdannia nudiflora) [%] | Percent control (0 to 100) (Ipomoea lacunosa) [%] | Percent control (0 to 100) (Sida spinosa) [%] | Percent control (0 to 100) (Ipomoea coccinea) [%] | Percent control (0 to 100) (Ipomoea hederacea) [%] | Percent control (0 to 100) (Jaquemontia tamnifolia) [%] | Percent control (0 to 100) (Conyza candensis) [%] | Percent control (0 to 100) (Solanum carolinense) [%] | Percent control (0 to 100) (Kyllinga squamulata) [%] | Percent control (0 to 100) (Sorghum halapense) [%] | Percent control (0 to 100) (Eleusine indica) [%] | Percent control (0 to 100) (Abutilon theophrasti) [%] | Percent control (0 to 100) (Amaranthus hybridus) [%] | Percent control (0 to 100) (Amaranthus palmeri) [%] | also measured
1 | CP(=O)(O)CCC(N)C(=O)O (stereo not shown) [Glufosinate, glufosinate] | 100 | 100 | 100 | 100 | 100 | 100 | 100 | 100 | 100 | 100 | 100 | 100 | 100 | 30 | 100 | 100 | 100 | 100 | 100 | Percent control (0 to 100) (Cyperus iria): 60%; Percent control (0 to 100) (Ipomoea quamoclit): 100%
2 | O=C(O)CNCP(=O)(O)O [Glyphosate, glyphosate] | 25 | 70 | 60 | 75 | 99 | 80 | 60 | 60 | 50 | 60 | 40 | 0 | 50 | 95 | 100 | 90 | 100 | 90 | 35 | –
